Assay results reported in patent US9770026B2, “Substituted pyrimidine compound and uses thereof” (Shenyang Sinochem Agrochemicals R&D Co., Ltd., priority 2012, dated 2017).

What was measured:
rice blast = assay: microbe, parasite or virus in culture; assay type: cell-based; settings: Pyricularia oryzae
Diamond back moth = assay: insecticidal activity against diamond back moth, airbrush spray; assay type: in vivo; settings: mortality after 72 hrs; for control (test results against diamond back moth): 600 ppm
Method in brief: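 Airbrush leaf-disc spray test: both faces of 2 cm cabbage discs received 0.5 ml of test solution at 0.7 kg/cm^2. Solutions were made in acetone:methanol (1:1) and brought to concentration with 0.1% Tween 80 in water. Ten second-instar larvae per disc, triplicates, were held at 25° C and 60˜70% R.H., with mortality recorded at 72 hrs.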

corn rust = assay: protectant activity in vivo against corn rust; settings: for pest or weed control at 0.4 µg/mL: read-out: control effect against corn rust (%), 0.4 mg/L; for pest or weed control at 0.4 µg/mL / pest or weed control at 1.6 µg/mL / pest or weed control at 6.25 µg/mL / pest or weed control at 25 µg/mL / pest or weed control at 100 µg/mL / pest or weed control at 400 µg/mL: protectant activity; for pest or weed control at 1.6 µg/mL: read-out: control effect against corn rust (%), 1.6 mg/L; for pest or weed control at 6.25 µg/mL: read-out: control effect against corn rust (%), 6.25 mg/L; for pest or weed control at 25 µg/mL: read-out: control effect against corn rust (%), 25 mg/L; for pest or weed control at 100 µg/mL: read-out: control effect against corn rust (%), 100 mg/L; for pest or weed control at 400 µg/mL: read-out: control effect against corn rust (%), 400 mg/L; for pest or weed control at 25 ppm: read-out: protectant activity against corn rust in vivo, 25 ppm
carmine spider mite = assay: bioactivity test against carmine spider mite, airbrush spray; assay type: in vivo; settings: for control against carmine spider mite: mortality after 72 hrs
Method in brief: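 Broadbean seedlings infested with adult mites were sprayed with compound (acetone/methanol stock diluted in 0.1% Tween 80 water) by airbrush at 0.7 kg/cm^2, 0.5 ml. Three replicates were run. Mortality was scored after 72 hrs.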

wheat powdery mildew = assay: protectant activity in vivo against wheat powdery mildew; settings: for pest or weed control at 1.6 µg/mL: read-out: control effect against wheat powdery mildew (%), 1.6 mg/L
cucumber downy mildew = assay: protectant activity in vivo against cucumber downy mildew; settings: for pest or weed control at 50 ppm: read-out: protectant activity against cucumber downy mildew in vivo, 50 ppm
[1] = system: Green peach aphids (Myzus Persicae Sulzer); assay: bioactivity test against green peach aphid, airbrush foliar spray; assay type: in vivo; settings: for Insecticidal activity against peach aphid (%): contrastive test
Method in brief: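 Aphids (15-30 per cabbage leaf disc) on moist filter paper were airbrush-sprayed at 10 psi, 0.5 mL, with compound from acetone:methanol (1:1) diluted in water with 0.1% tween 80. Held at 25±1 C, 60±5% RH; survivors counted after 48 hrs to give death rates.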

[2] = Triticum aestivum, 168 h, protectant activity
[3] = 10 ppm, death rate after 48 hrs

## CCc1ncnc(NCCc2ccc(Oc3ccc(C(F)(F)F)cn3)cc2)c1Cl [Compound I-254]
Rice blast; read-out: inhibition rate against rice blast, 25 ppm, in vitro
  inhibition at 25 ppm: 80 to 99%
Diamond back moth
  control (test results against diamond back moth): 100%
Diamond back moth; 72 h, 100 ppm, read-out: control (test results against diamond back moth)
  pest or weed control at 100 ppm: 100%
Corn rust; 100 ppm
  protectant activity against corn rust in vivo: 100%
Corn rust; 400 ppm
  protectant activity against corn rust in vivo: 100%
Corn rust; Zea mays, 168 h
  pest or weed control at 0.4 µg/mL: 40%
  pest or weed control at 1.6 µg/mL: 95%
  pest or weed control at 6.25 µg/mL: 100%
  pest or weed control at 25 µg/mL: 100%
  pest or weed control at 100 µg/mL: 100%
  pest or weed control at 400 µg/mL: 100%
  pest or weed control at 25 ppm: 100%
Corn rust; Zea mays, 168 h, read-out: protectant activity against corn rust in vivo, 6.25 ppm
  pest or weed control at 6.25 ppm: 100%
Carmine spider mite; 2.5 mg/L
  Insecticidal activity against carmine spider mite (% ): 79%
Carmine spider mite; 5 mg/L
  Insecticidal activity against carmine spider mite (% ): 93%
Carmine spider mite; 10 mg/L, contrastive test
  Insecticidal activity against carmine spider mite (% ): 97%
Carmine spider mite; 100 mg/L, contrastive test
  Insecticidal activity against carmine spider mite (% ): 100%
Carmine spider mite; 600 mg/L, contrastive test
  Insecticidal activity against carmine spider mite (% ): 100%
Carmine spider mite; 10 ppm
  control against carmine spider mite: 100%
Carmine spider mite; 100 ppm
  control against carmine spider mite: 100%
Carmine spider mite; 600 ppm
  control against carmine spider mite: 100%
Wheat powdery mildew; 6.25 mg/L, protectant activity
  control effect against wheat powdery mildew (%): 100%
Wheat powdery mildew; 25 mg/L, protectant activity
  control effect against wheat powdery mildew (%): 100%
Wheat powdery mildew; 100 mg/L, protectant activity
  control effect against wheat powdery mildew (%): 100%
Wheat powdery mildew; 400 mg/L, protectant activity
  control effect against wheat powdery mildew (%): 100%
Wheat powdery mildew; 100 ppm
  protectant activity against wheat powdery mildew in vivo: 100%
Wheat powdery mildew; 400 ppm
  protectant activity against wheat powdery mildew in vivo: 100%
Wheat powdery mildew; [2]
  pest or weed control at 1.6 µg/mL: 20%
Cucumber downy mildew; 100 ppm
  protectant activity against cucumber downy mildew in vivo: 100%
Cucumber downy mildew; 400 ppm
  protectant activity against cucumber downy mildew in vivo: 100%
Cucumber downy mildew; Cucumis sativus, 168 h
  pest or weed control at 50 ppm: 100%
[1]; 1.25 mg/L
  Insecticidal activity against peach aphid (%): 100%
[1]; 2.5 mg/L
  Insecticidal activity against peach aphid (%): 100%
[1]; 5 mg/L
  Insecticidal activity against peach aphid (%): 100%
[1]; 10 mg/L
  Insecticidal activity against peach aphid (%): 100%
[1]; 100 mg/L
  Insecticidal activity against peach aphid (%): 100%
[1]; 600 mg/L
  Insecticidal activity against peach aphid (%): 100%
[1]; 5 ppm, death rate after 48 hrs
  control (test results against green peach aphid): 100%
[1]; [3]
  control (test results against green peach aphid): 100%
[1]; 100 ppm, death rate after 48 hrs
  control (test results against green peach aphid): 100%
[1]; 600 ppm, death rate after 48 hrs
  control (test results against green peach aphid): 100%
[1]; Myzus persicae, foliar, 48 h, 2.5 ppm, death rate after 48 hrs
  pest or weed control at 2.5 ppm: 100%

## Cc1ncnc(NCCc2ccc(Oc3ccc(C(F)(F)F)cn3)cc2)c1Cl [Compound I-22]
Rice blast; read-out: inhibition rate against rice blast, 8.3 ppm, in vitro
  inhibition at 8.3 ppm: 80 to 99%
Diamond back moth
  control (test results against diamond back moth): 100%
Corn rust; 6.25 ppm
  protectant activity against corn rust in vivo: 100%
Corn rust; 100 ppm
  protectant activity against corn rust in vivo: 100%
Corn rust; Zea mays, 168 h
  pest or weed control at 0.4 µg/mL: 20%
  pest or weed control at 1.6 µg/mL: 50%
  pest or weed control at 6.25 µg/mL: 100%
  pest or weed control at 25 µg/mL: 100%
  pest or weed control at 100 µg/mL: 100%
  pest or weed control at 400 µg/mL: 100%
  pest or weed control at 25 ppm: 100%
Corn rust; Zea mays, 168 h, read-out: protectant activity against corn rust in vivo, 400 ppm
  pest or weed control at 400 ppm: 100%
Carmine spider mite; 5 mg/L
  Insecticidal activity against carmine spider mite (% ): 59%
Carmine spider mite; 10 mg/L, contrastive test
  Insecticidal activity against carmine spider mite (% ): 74%
Carmine spider mite; 100 mg/L, contrastive test
  Insecticidal activity against carmine spider mite (% ): 100%
Carmine spider mite; 600 mg/L, contrastive test
  Insecticidal activity against carmine spider mite (% ): 100%
Carmine spider mite; 100 ppm
  control against carmine spider mite: 100%
Carmine spider mite; 600 ppm
  control against carmine spider mite: 100%
Wheat powdery mildew; 6.25 ppm
  protectant activity against wheat powdery mildew in vivo: 100%
Wheat powdery mildew; 100 ppm
  protectant activity against wheat powdery mildew in vivo: 100%
Wheat powdery mildew; [2]
  pest or weed control at 1.6 µg/mL: 15%
Wheat powdery mildew; Triticum aestivum, 168 h, read-out: control effect against wheat powdery mildew (%), 6.25 mg/L, protectant activity
  pest or weed control at 6.25 µg/mL: 100%
Wheat powdery mildew; Triticum aestivum, 168 h, read-out: control effect against wheat powdery mildew (%), 25 mg/L, protectant activity
  pest or weed control at 25 µg/mL: 100%
Wheat powdery mildew; Triticum aestivum, 168 h, read-out: control effect against wheat powdery mildew (%), 100 mg/L, protectant activity
  pest or weed control at 100 µg/mL: 100%
Wheat powdery mildew; Triticum aestivum, 168 h, read-out: control effect against wheat powdery mildew (%), 400 mg/L, protectant activity
  pest or weed control at 400 µg/mL: 100%
Wheat powdery mildew; Triticum aestivum, 168 h, read-out: protectant activity against wheat powdery mildew in vivo, 25 ppm
  pest or weed control at 25 ppm: 100%
Wheat powdery mildew; Triticum aestivum, 168 h, read-out: protectant activity against wheat powdery mildew in vivo, 400 ppm
  pest or weed control at 400 ppm: 100%
Cucumber downy mildew; 100 ppm
  protectant activity against cucumber downy mildew in vivo: 100%
Cucumber downy mildew; Cucumis sativus, 168 h, read-out: control effect against cucumber downy mildew (%), 3.125 mg/L, protectant activity
  pest or weed control at 3.125 µg/mL: 85%
Cucumber downy mildew; Cucumis sativus, 168 h, read-out: control effect against cucumber downy mildew (%), 6.25 mg/L, protectant activity
  pest or weed control at 6.25 µg/mL: 100%
Cucumber downy mildew; Cucumis sativus, 168 h, read-out: control effect against cucumber downy mildew (%), 12.5 mg/L, protectant activity
  pest or weed control at 12.5 µg/mL: 100%
Cucumber downy mildew; Cucumis sativus, 168 h, read-out: control effect against cucumber downy mildew (%), 25 mg/L, protectant activity
  pest or weed control at 25 µg/mL: 100%
Cucumber downy mildew; Cucumis sativus, 168 h, read-out: control effect against cucumber downy mildew (%), 50 mg/L, protectant activity
  pest or weed control at 50 µg/mL: 100%
Cucumber downy mildew; Cucumis sativus, 168 h, read-out: control effect against cucumber downy mildew (%), 100 mg/L, protectant activity
  pest or weed control at 100 µg/mL: 100%
Cucumber downy mildew; Cucumis sativus, 168 h, read-out: control effect against cucumber downy mildew (%), 400 mg/L, protectant activity
  pest or weed control at 400 µg/mL: 100%
Cucumber downy mildew; Cucumis sativus, 168 h, read-out: protectant activity against cucumber downy mildew in vivo, 6.25 ppm
  pest or weed control at 6.25 ppm: 100%
Cucumber downy mildew; Cucumis sativus, 168 h, read-out: protectant activity against cucumber downy mildew in vivo, 12.5 ppm
  pest or weed control at 12.5 ppm: 100%
Cucumber downy mildew; Cucumis sativus, 168 h, read-out: protectant activity against cucumber downy mildew in vivo, 25 ppm
  pest or weed control at 25 ppm: 100%
Cucumber downy mildew; Cucumis sativus, 168 h
  pest or weed control at 50 ppm: 100%
Cucumber downy mildew; Cucumis sativus, 168 h, read-out: protectant activity against cucumber downy mildew in vivo, 400 ppm
  pest or weed control at 400 ppm: 100%
[1]; 1.25 mg/L
  Insecticidal activity against peach aphid (%): 100%
[1]; 2.5 mg/L
  Insecticidal activity against peach aphid (%): 100%
[1]; 5 mg/L
  Insecticidal activity against peach aphid (%): 100%
[1]; 10 mg/L
  Insecticidal activity against peach aphid (%): 100%
[1]; 100 mg/L
  Insecticidal activity against peach aphid (%): 100%
[1]; 600 mg/L
  Insecticidal activity against peach aphid (%): 100%
[1]; [3]
  control (test results against green peach aphid): 100%
[1]; Myzus persicae, foliar, 48 h, 100 ppm, death rate after 48 hrs
  pest or weed control at 100 ppm: 100%
[1]; Myzus persicae, foliar, 48 h, 600 ppm, death rate after 48 hrs
  pest or weed control at 600 ppm: 100%
